Key:
[1] = test system: H1975 cells; assay: Inhibition of cancer cell growth, MTT assay, H1975; details: Homo sapiens, NCI-H1975, 72 h, read-out: IC50 in H1975 cells
[2] = test system: HCC827 cells; assay: cells; details: Homo sapiens, HCC827, 72 h, read-out: IC50 in HCC827 cells
[3] = target: EGFR (ErbB1) T790M L858R (Homo sapiens (Human), UniProt P00533, L858R/T790M); assay: Z'-LYTE kinase inhibition assay, EGFR L858R/T790M; format: biochemical; details: for inhibition at 1 µM: read-out: % inhibition against EGFR L858R/T790M (Compound at 1 μM); for inhibition at 0.0137 µM: read-out: % inhibition against EGFR L858R/T790M (Compound at 0.0137 μM); for IC50: read-out: IC50 against EGFR L858R/T790M
Sequence of EGFR (ErbB1) T790M L858R (P00533 25-1210 T790M/L858R): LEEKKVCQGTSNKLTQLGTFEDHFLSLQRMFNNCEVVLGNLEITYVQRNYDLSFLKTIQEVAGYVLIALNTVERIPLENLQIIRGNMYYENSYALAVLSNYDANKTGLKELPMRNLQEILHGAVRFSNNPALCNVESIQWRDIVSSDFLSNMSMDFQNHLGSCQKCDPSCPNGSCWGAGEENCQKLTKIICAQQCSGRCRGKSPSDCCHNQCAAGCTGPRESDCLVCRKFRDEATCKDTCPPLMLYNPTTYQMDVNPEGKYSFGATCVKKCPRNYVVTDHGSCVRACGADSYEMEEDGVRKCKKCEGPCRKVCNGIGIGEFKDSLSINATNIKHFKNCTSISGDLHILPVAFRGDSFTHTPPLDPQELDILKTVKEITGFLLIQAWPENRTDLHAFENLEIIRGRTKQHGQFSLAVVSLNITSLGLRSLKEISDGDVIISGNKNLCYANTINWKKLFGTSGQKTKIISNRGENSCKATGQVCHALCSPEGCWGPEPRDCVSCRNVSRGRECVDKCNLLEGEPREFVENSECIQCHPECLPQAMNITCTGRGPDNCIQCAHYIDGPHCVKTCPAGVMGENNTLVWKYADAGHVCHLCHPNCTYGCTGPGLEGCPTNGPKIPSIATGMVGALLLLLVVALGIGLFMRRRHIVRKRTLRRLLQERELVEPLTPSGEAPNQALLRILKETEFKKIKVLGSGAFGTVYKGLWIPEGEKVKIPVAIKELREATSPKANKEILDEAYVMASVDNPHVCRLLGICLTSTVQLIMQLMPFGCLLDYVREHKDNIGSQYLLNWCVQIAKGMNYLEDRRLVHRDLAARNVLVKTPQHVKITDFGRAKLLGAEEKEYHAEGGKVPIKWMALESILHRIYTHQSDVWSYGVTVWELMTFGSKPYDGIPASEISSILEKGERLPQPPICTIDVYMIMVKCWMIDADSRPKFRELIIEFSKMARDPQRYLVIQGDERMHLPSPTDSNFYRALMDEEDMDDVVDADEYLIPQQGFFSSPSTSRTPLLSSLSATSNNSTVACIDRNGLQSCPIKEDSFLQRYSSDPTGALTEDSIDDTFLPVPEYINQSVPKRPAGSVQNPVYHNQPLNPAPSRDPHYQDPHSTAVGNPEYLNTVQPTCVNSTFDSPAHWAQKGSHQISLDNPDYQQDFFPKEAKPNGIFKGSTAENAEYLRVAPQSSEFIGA
In short: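 Z'-LYTE FRET peptide assay at 1% DMSO, 10-point 3-fold titrations; kinase/peptide mix in 50 mM HEPES pH 6.5, 0.01% BRIJ-35, 10 mM MgCl2, 1 mM EGTA, 0.02% NaN3. Kinase reaction ran 60 min at room temperature, followed by 60 min development and a fluorescence read. IC50 derived from the concentration series.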

[4] = target: BTK (Homo sapiens (Human), UniProt Q06187); assay: Z'-LYTE kinase inhibition assay, BTK; format: biochemical; details: for inhibition at 0.041 µM: compound at 0.041 μM, read-out: % inhibition against BTK
Sequence of BTK (Q06187 whole entry): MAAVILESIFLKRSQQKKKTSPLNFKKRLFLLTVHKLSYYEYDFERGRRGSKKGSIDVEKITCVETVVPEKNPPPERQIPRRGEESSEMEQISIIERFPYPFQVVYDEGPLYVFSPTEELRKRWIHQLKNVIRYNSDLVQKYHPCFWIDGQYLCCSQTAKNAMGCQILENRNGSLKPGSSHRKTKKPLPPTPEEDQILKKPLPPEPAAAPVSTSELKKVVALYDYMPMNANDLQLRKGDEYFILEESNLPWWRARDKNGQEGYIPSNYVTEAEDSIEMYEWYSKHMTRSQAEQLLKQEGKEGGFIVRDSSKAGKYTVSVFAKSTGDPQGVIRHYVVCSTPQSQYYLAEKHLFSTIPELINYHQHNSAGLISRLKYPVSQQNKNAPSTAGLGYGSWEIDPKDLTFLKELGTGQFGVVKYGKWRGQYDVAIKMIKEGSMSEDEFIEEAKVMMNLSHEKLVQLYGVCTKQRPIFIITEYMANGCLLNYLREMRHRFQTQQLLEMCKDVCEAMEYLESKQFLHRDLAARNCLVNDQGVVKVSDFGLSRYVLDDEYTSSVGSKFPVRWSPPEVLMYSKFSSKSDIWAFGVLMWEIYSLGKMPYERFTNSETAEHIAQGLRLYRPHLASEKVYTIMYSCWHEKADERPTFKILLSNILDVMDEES
Procedure: Inhibitory activities of compounds against BTK, EGFR and EGFR mutants (EGFR L858R, EGFR T790M, EGFR L858R/T790M), FGFR1, FGFR2, JAK2, JAK3 and KDR were measured by Invitrogen using Z'-LYTE® Method as briefly described in the following.
Test Compounds are screened in 1% DMSO (final) in the well. For 10 point titrations, 3-fold serial dilutions are conducted from the starting concentration. All ATP Solutions are diluted to a 4× working concentration in Kinase Buffer (50 mM HEPES pH 7.5, 0.01% BRIJ-35, 10 mM MgCl2, 1 mM EGTA). Peptide/Kinase Mixtures are diluted to a 2× working concentration in the appropriate Kinase Buffers as described below.
(v) Peptide/Kinase Mixtures for Measurement of BTK:
The 2×BTK/Tyr 01 mixture is prepared in 50 mM HEPES pH 7.5. 0.01% BRIJ-35, 10 mM MgCl2, 1 mM EGTA.
The mixture is then incubated for another 60-minute at room temperature for development reaction. Finally fluorescence is read by plate reader.
To determine IC50 of a compound against EGFR, EGFR mutant and other kinases, a series of concentrations of the compound were tested for the inhibition. […] The scale utilized in Table 4 is as follows: +++ less than 100 nM, ++ 100-500 nM and + greater than 500 nM.

[5] = target: EGFR (ErbB1) (Homo sapiens (Human), UniProt P00533); assay: Z'-LYTE kinase inhibition assay, EGFR; format: biochemical; details: for inhibition at 0.041 µM: read-out: % inhibition against EGFR (Compound at 0.041 μM)
Sequence of EGFR (ErbB1) (P00533 25-1210): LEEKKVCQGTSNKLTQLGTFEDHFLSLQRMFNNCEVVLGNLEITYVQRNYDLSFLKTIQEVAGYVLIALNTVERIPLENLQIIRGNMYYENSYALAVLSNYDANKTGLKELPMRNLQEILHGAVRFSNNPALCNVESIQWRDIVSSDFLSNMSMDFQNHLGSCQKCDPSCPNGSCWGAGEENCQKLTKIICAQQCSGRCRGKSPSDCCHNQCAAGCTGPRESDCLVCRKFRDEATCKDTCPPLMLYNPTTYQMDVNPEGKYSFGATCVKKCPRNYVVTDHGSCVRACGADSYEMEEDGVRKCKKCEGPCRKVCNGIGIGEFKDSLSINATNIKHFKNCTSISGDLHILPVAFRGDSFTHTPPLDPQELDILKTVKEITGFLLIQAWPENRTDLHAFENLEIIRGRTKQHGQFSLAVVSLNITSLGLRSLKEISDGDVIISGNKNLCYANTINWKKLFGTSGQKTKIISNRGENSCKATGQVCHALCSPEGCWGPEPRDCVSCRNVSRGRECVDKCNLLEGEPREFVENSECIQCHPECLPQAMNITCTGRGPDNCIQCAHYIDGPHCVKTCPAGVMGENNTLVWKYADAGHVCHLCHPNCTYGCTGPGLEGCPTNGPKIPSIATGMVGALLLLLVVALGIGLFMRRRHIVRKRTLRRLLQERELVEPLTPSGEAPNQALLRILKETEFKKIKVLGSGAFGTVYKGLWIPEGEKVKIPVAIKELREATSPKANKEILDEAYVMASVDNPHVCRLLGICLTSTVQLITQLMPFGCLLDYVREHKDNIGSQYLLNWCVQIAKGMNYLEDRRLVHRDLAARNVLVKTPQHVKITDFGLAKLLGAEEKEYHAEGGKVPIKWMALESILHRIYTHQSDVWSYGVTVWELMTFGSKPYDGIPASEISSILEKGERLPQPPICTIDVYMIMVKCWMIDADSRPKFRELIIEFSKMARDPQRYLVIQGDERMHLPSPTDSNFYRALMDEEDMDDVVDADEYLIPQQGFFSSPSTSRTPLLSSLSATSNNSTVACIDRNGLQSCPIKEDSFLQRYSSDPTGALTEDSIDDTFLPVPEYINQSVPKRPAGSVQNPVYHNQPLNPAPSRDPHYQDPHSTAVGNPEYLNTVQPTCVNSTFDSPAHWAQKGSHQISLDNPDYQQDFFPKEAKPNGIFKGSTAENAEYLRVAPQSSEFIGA
In short: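 Z'-LYTE FRET assay run with 1.1-5.25 ng EGFR and 2 μM peptide substrate in 50 mM HEPES pH 7.5, 10 mM MgCl2, 2 mM MnCl2, 1 mM EGTA, 1 mM DTT, 0.01% BRIJ-35, 1% DMSO. Kinase reaction 60 min at room temperature, then 60 min development; IC50 from 10-point 3-fold titrations.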

[6] = test system: A431 cells; assay: cells; details: Homo sapiens, A-431, 72 h, read-out: IC50 in A431 cells
[7] = test system: H3255 cells; assay: Inhibition of cancer cell growth, MTT assay, H3255; details: Homo sapiens, NCI-H3255, 72 h, read-out: IC50 in H3255 cells
Procedure: Inhibition of cell growth by compounds was measured using MTT assay (Mosmann, T., Journal of Immunological Methods, 1983, 65, 55-63). Tumor cell lines were purchased from ATCC (American Type Culture Collection, Manassas, Va.). All cell lines were maintained in RPMI 1640 (Hyclone) supplemented with 10% fetal bovine serum (FBS, Hyclone), glutamine (2 mM, Hyclone), and antibiotics (penicillin 100 U/mL and streptomycin 50 μg/mL) at 37° C. in a humidified atmosphere of 5% CO2 in air. Taxol (as a positive control. Sigma) and compounds were dissolved in DMSO (Sigma), and the final concentration of DMSO in the medium was 1%. Tumor cells were plated in 96-well plates at densities of about 4000 cells/well of a 96-well plate and allowed to adhere/grow for 24 h. They were then treated with various concentrations of drug for 72 h, 3-(4,5-Dimethylthiazol-2-yl)-2,5-diphenyltetrazolium bromide (MTT, Sigma) was used to determine the number of viable cells at the time of compound addition and the number of cells remaining after 72 h compound exposure. The number of cells remaining after 72 h was compared to the number of viable cells at the time of compound addition by measuring the absorbance at 570 nm, allowing for the calculation of growth inhibition.
All concentrations of compounds were tested in triplicate and controls were averaged over 4 wells. IC50 was calculated by plotting the concentration of compound vs the percentage of inhibition in treated wells using GraphPad Prism 5.

With `Fc1ccc(Cl)cc1-c1cccc2cnc(Nc3ccc(N4CCNCC4)cc3)nc12` [Example C024, 8-(5-chloro-2-fluorophenyl)-N-(4-(piperazin-1-yl)phenyl)quinazolin-2-amine] as the compound, how does the IC50 [1] read?
The IC50 was > 500 nM.

What about the IC50 [2] of the same compound?
Its IC50 is > 500 nM.

And the inhibition at 1 µM [3]?
Its inhibition at 1 µM is > 50%.

Which inhibition at 0.041 µM [4] does the source give for `C=CC(=O)Nc1cccc(-c2cccc3cnc(Nc4ccc(OC5CCN(C)CC5)cc4)nc23)c1` [Example C126, N-(3-(2-((4-((1-methylpiperidin-4-yl)oxy)phenyl)amino)quinazolin-8-yl)phenyl)acrylamide] here?
The inhibition at 0.041 µM was > 50%.

And the inhibition at 0.041 µM [5]?
Its inhibition at 0.041 µM is > 50%.

What about the IC50 [1] of the same compound?
Its IC50 is < 100 nM.

What about the IC50 [6] of the same compound?
Its IC50 is < 100 nM.

What about the inhibition at 0.0137 µM [3] of the same compound?
The inhibition at 0.0137 µM was > 50%.

And the IC50 [3]?
Its IC50 is < 100 nM.

What does the source list for `C=CC(=O)Nc1cccc(-c2cccc3cnc(Nc4ccc(NC5CCN(C(C)=O)CC5)cc4)nc23)c1` [Example C120, N-(3-(2-((4-((1-acetylpiperidin-4-yl)amino)phenyl)amino)quinazolin-8-yl)phenyl)acrylamide]?
inhibition at 0.041 µM [4]: > 50%; inhibition at 0.041 µM [5]: < 50%; IC50 [1]: < 100 nM; inhibition at 0.0137 µM [3]: < 50%

Which results are given for `C=CC(=O)Nc1cccc(-c2cccc3cnc(Nc4ccc(O[C@H]5CCN(C)C5)cc4)nc23)c1` [Example C121, (S)-N-(3-(2-((4-((1-methylpyrrolidin-3-yl)oxy)phenyl)amino)quinazolin-8-yl)phenyl)acrylamide]?
inhibition at 0.041 µM [4]: > 50%; inhibition at 0.041 µM [5]: < 50%; IC50 [1]: < 100 nM; IC50 [6]: 100 to 500 nM; inhibition at 0.0137 µM [3]: > 50%; IC50 [3]: < 100 nM

What does the source list for `c1ccc(-c2cccc3cnc(Nc4ccc(N5CCNCC5)cc4)nc23)cc1` [Example C030, 8-phenyl-N-(4-(piperazin-1-yl)phenyl)quinazolin-2-amine]?
inhibition at 1 µM ([5]; read-out: % inhibition against EGFR (Compound at 1 μM)): > 50%; IC50 [1]: 100 to 500 nM; IC50 [2]: 100 to 500 nM; inhibition at 1 µM [3]: > 50%

For `C=CC(=O)Nc1cccc(-c2cccc3cnc(Nc4ccc(OCCO)cc4)nc23)c1` [Example C108, N-(3-(2-((4-(2-hydroxyethoxy)phenyl)amino)quinazolin-8-yl)phenyl)acrylamide], which IC50 ([4]; read-out: IC50 against BTK) is on record?
Its IC50 is < 100 nM.

And the IC50 [1]?
The IC50 was < 100 nM.

What about the IC50 [6] of the same compound?
Its IC50 is > 500 nM.

And the IC50 [3]?
The IC50 was < 100 nM.

What does the source list for `C=CC(=O)Nc1cccc(-c2cccc3cnc(Nc4ccc(NC5CCOCC5)cc4)nc23)c1` [Example C111, N-(3-(2-((4-((tetrahydro-2H-pyran-4-yl)amino)phenyl)amino)quinazolin-8-yl)phenyl)acrylamide]?
inhibition at 0.041 µM [4]: > 50%; inhibition at 0.041 µM [5]: < 50%; IC50 [1]: < 100 nM; inhibition at 0.0137 µM [3]: < 50%

What does the source list for `C=CC(=O)Nc1cccc(-c2cccc3cnc(Nc4cc(F)c(N5CCN(CCO)CC5)cc4F)nc23)c1` [Example C162, N-(3-(2-((2,5-difluoro-4-(4-(2-hydroxyethyl)piperazin-1-yl)phenyl)amino)quinazolin-8-yl)phenyl)acrylamide]?
IC50 [7]: > 500 nM; IC50 [1]: 100 to 500 nM

`C=CC(=O)Nc1cccc(-c2cccc3cnc(Nc4ccc(N5CCN(C)C(=O)C5)cc4)nc23)c1` [Example C116, N-(3-(2-((4-(4-methyl-3-oxopiperazin-1-yl)phenyl)amino)quinazolin-8-yl)phenyl)acrylamide] was tested. Which inhibition at 0.041 µM [4] did it give?
The inhibition at 0.041 µM was > 50%.

What about the inhibition at 0.041 µM [5] of the same compound?
The inhibition at 0.041 µM was < 50%.

And the IC50 [1]?
The IC50 was 100 to 500 nM.

What about the inhibition at 0.0137 µM [3] of the same compound?
The inhibition at 0.0137 µM was < 50%.

Which inhibition at 0.041 µM [4] does the source give for `C=CC(=O)Nc1cccc(-c2cccc3cnc(Nc4ccc(OC5CN(C(C)=O)C5)cc4)nc23)c1` [Example C122, N-(3-(2-((4-((1-acetylazetidin-3-yl)oxy)phenyl)amino)quinazolin-8-yl)phenyl)acrylamide] here?
Its inhibition at 0.041 µM is > 50%.

And the inhibition at 0.041 µM [5]?
The inhibition at 0.041 µM was < 50%.

What about the IC50 [1] of the same compound?
Its IC50 is < 100 nM.

And the inhibition at 0.0137 µM [3]?
The inhibition at 0.0137 µM was < 50%.

Which results are given for `C=CC(=O)Nc1cccc(-c2cccc3cnc(Nc4ccc(O[C@@H]5CCN(C)C5)cc4)nc23)c1` [Example C123, (R)-N-(3-(2-((4-((1-methylpyrrolidin-3-yl)oxy)phenyl)amino)quinazolin-8-yl)phenyl)acrylamide]?
inhibition at 0.041 µM [4]: > 50%; inhibition at 0.041 µM [5]: > 50%; IC50 [1]: < 100 nM; IC50 [6]: < 100 nM; inhibition at 0.0137 µM [3]: > 50%; IC50 [3]: < 100 nM
